Laboratory results from US20210230548A1, “NATURAL KILLER CELLS ENGINEERED TO EXPRESS CHIMERIC ANTIGEN RECEPTORS WITH IMMUNE CHECKPOINT BLOCKADE” (Board of Regents, The University of Texas System, priority 2018, published 2021).

Tests used:
[1] = test system: iC9/CAR.19/IL-15 NK cells; experiment: Activation of suicide gene in vitro with dimerizer AP1903; assay type: cell-based
Experimental: (§1) Activation of suicide gene in vitro and validation in vivo: The small-molecule dimerizer AP1903 (10 nM), was added to CB-NK cell cultures for 4 h. The elimination of transduced cells was evaluated by Annexin-V/Live dead staining. The efficacy of the suicide gene was also tested in vivo by treating tumor-bearing mice that had received iC9/CAR.19/IL-15+ NK cells (control or CISH KO) with two doses of AP1903 (50 μg each) intraperitoneally, 2 days apart on days 7 and 9. Two other groups of mice (control and CISH KO) served as control without AP1903 treatment. All mice were sacrificed on day 12, and blood and organs (Liver, spleen and bone marrow) were collected, processed and flow cytometry was performed to determine CAR-NK fraction and viability.

[2] = test system: iC9/CAR.19/IL-15 CB-NK cells; experiment: Suicide gene validation in vivo in Raji tumor-bearing mice; design: species or system mouse; conditions: dimerizer on days 7 and 9 post NK infusion, sacrifice day 12; both control and CISH KO cells
Experimental: as §1

CISH locus = experiment: GUIDE-seq off-target identification in HEK293 cells constitutively expressing Cas9; assay type: cell-based; conditions: GuideSeq
Excerpt: Off-target Identification: The GUIDE-seq method was employed for unbiased discovery of off-target editing events (Tsai et al., 2015). In this study, HEK293 cells that constitutively express the S pyogenes Cas9 nuclease (“HEK293-Cas9” cells) were the source of Cas9. Alt-R® gRNA complexes were formed by combining Alt-R tracrRNA and Alt-R crRNA XT at a 1:1 molar ratio. gRNA complexes were delivered by nucleofection using the Amaxa™ Nucleofector™ 96-well Shuttle™ System (Lonza, Basel, Switzerland). For each nucleofection, 3.5×10^5 HEK293-Cas9 cells were washed with 1×PBS, resuspended in 20 μL solution SF (Lonza) and combined with 10 μM gRNA along with 0.5 μM GUIDE-seq dsDNA donor fragment. This mixture was transferred into one well of a Nucleocuvette™ Plate (Lonza) and electroporated using protocol 96-DS-150. DNA was extracted 72 hrs after electroporation using the GeneJET Genomic DNA purification kit (Thermo Fisher Scientific). NGS library preparation, sequencing, and operation of the GUIDE-seq software was performed as previously described except that Needleman-Wunch alignment was incorporated (Tsai et al., 2016).

CC[C@H](C(=O)N1CCCC[C@H]1C(=O)O[C@H](CCc1ccc(OC)c(OC)c1)c1cccc(OCC(=O)NCCNC(=O)COc2cccc([C@@H](CCc3ccc(OC)c(OC)c3)OC(=O)[C@@H]3CCCCN3C(=O)[C@@H](CC)c3cc(OC)c(OC)c(OC)c3)c2)c1)c1cc(OC)c(OC)c(OC)c1 [AP1903]
time to apoptosis of transduced NK cells ([1]; 10 nM): ≤ 4 h | apoptosis of transduced NK cells ([1]; 10 nM added to cultures): induced apoptosis of transduced NK cells | reduction in iC9/CAR.19/IL-15 CB-NK cells in blood and tissues (liver, spleen, bone marrow) [2]: striking reduction

crRNA2: crRNA targeting CISH exon 4, sequence TGTACAGCAGTGGCTGGTGG (SEQ ID NO:2) (listed as DNA, chemistry not given here)
off-target sites / events (CISH locus): even higher frequencies of off-target events
